In the test the target is PKBα (Homo sapiens, UniProt P31749). The test can be described thus: PKB kinase assay (P33-labeled ATP, peptide substrate, filter plate). In kind it is biochemical. As to conditions: PKBα enzyme (full length or kinase domain with pleckstrin domain deleted). The source says: The kinase assay for evaluating PKB activity comprises active PKB enzymes, a PKB specific substrate, and P^33-labeled ATP. […] The phosphorylated substrate was captured by a phosphocellulose membrane filter plate (MLLIPORE) and measured by a Wallac Microbeta liquid scintillation counter (Perkin Elmer).
Chain of PKBα (P31749 118-480 limits assumed): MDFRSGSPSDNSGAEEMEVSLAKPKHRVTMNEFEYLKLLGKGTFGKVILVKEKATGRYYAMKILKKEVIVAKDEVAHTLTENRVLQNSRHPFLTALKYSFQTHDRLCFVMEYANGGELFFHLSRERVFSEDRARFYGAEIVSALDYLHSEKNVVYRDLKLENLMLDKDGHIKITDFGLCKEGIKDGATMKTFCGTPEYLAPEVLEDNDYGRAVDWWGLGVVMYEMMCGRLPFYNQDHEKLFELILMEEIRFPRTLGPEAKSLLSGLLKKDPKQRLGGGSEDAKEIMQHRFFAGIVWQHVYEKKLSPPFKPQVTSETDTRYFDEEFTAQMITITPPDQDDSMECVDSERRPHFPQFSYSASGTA

This is an account of results in US8084479B2, “Thiazole compounds and methods of use” (Amgen Inc., priority 2006, dated 2011).

Counter-ions that a name gives are not always drawn.

Consider `C[C@@H](Nc1ncc(-c2ccc3[nH]c(=O)n(C)c3c2)s1)[C@@H](N)Cc1ccc(C(F)(F)F)cc1` [Example 232, 6-(2-((2R,3S)-3-amino-4-(4-(trifluoromethyl)phenyl)butan-2-ylamino)thiazol-5-yl)-1-methyl-1H-benzo[d]imidazol-2(3H)-one], for which the IC50 lay within 50 to 1000 nM.

Regarding `CC(C)(C)C(=O)OC[C@@H](c1ccc(C(F)(F)F)cc1)[C@H](N)CNc1ncc(-c2ccc3c(c2)CC(=O)N3)s1` [Example 242, (2S,3S)-3-amino-4-(5-(2-oxoindolin-5-yl)thiazol-2-ylamino)-2-(4-(trifluoromethyl)phenyl)butyl pivalate], the IC50 is 50 to 1000 nM.

On to `N[C@H](CNc1nc(-c2cnco2)c(-c2ccc3cnccc3c2)s1)Cc1ccc(C(F)(F)F)cc1` [Example 118, N—((S)-2-Amino-3-(4-(trifluoromethyl)phenyl)propyl)-5-(isoquinolin-6-yl)-4-(oxazol-5-yl)thiazol-2-amine], for which the IC50 lay in the range of 50 to 1000 nM.

The compound `COc1cc(C[C@H](N)CNc2ncc(-c3ccc4cnccc4c3)s2)cnc1C(F)(F)F` [Example 173] showed an IC50 of under 50 nM.

`NC(CNc1ncc(-c2ccc3cnccc3c2)s1)Cc1ccc(OC(F)(F)F)cc1` (stereo not shown) [Example 189, N-(-2-amino-3-(4-(trifluoromethoxy)phenyl)propyl)-5-(isoquinolin-6-yl)thiazol-2-amine]: the IC50 was under 50 nM.

The compound `COc1ccc(CC(N)CNc2ncc(-c3ccc4c(c3)CC(=O)N4)s2)cc1F` (stereo not shown) [Example 130, 5-(2-(2-Amino-3-(3-fluoro-4-methoxyphenyl)propylamino)thiazol-5-yl)indolin-2-one] had an IC50 of 50 to 1000 nM.

Take `NC(CNc1nc(Cl)c(-c2ccc3cnccc3c2)s1)Cc1ccc(C(F)(F)F)cc1` (stereo not shown) [Example 165]: the IC50 was in the range of 50 to 1000 nM.

For `N[C@@H](CNc1ncc(-c2ccc3[nH]c(=O)oc3c2)s1)Cc1ccc(C(F)(F)F)c(F)c1` [Example 182, 6-(2-((R)-2-amino-3-(3-fluoro-4-(trifluoromethyl)phenyl)propylamino)thiazol-5-yl)benzo[d]oxazol-2(3H)-one], the IC50 fell in the range of 50 to 1000 nM.

With `N[C@H](CNc1ncc(-c2cc3ccncc3s2)s1)Cc1ccc(C(F)(F)F)cc1` [Example 108, N—((S)-2-amino-3-(4-(trifluoromethyl)phenyl)propyl)-5-(thieno[2,3-c]pyridin-2-yl)thiazol-2-amine], the IC50 was under 50 nM.

`COC[C@@H](c1ccc(C(F)(F)F)cc1)[C@H](N)CNc1ncc(-c2ccc3c(c2)CC(=O)N3)s1` [Example 241, 5-(2-((2S,3S)-2-amino-4-methoxy-3-(4-(trifluoromethyl)phenyl)butylamino)thiazol-5-yl)indolin-2-one] gave an IC50 of under 50 nM.

In the case of `N[C@H](CNc1ncc(-c2ccc3c(O)nncc3c2)s1)Cc1ccc(C(F)(F)F)cc1` [Example 65, 6-(2-((S)-2-amino-3-(4-(trifluoromethyl)phenyl)propylamino)thiazol-5-yl)phthalazin-1-ol], the IC50 lay in the range of 50 to 1000 nM.

For `N[C@H](CNc1ncc(-c2cc3c(cc2F)NC(=O)C3)s1)Cc1ccc(C(F)(F)F)cc1` [Example 214, 5-(2-((S)-2-amino-3-(4-(trifluoromethyl)phenyl)propylamino)thiazol-5-yl)-6-fluoroindolin-2-one], the IC50 is under 50 nM.

The compound `N[C@H](CNc1nc(-c2ccccc2F)c(-c2ccc3cnccc3c2)s1)Cc1ccc(F)cc1` [Example 106, N—((S)-2-Amino-3-(4-fluorophenyl)propyl)-4-(2-fluorophenyl)-5-(isoquinolin-6-yl)thiazol-2-amine] gave an IC50 of 50 to 1000 nM.

Turning to `N[C@H](CNc1nc(C(F)(F)CO)c(-c2ccc3c(c2)CC(=O)N3)s1)Cc1ccc(C(F)(F)F)cc1` [Example 133, 5-(2-((S)-2-Amino-3-(4-(trifluoromethyl)phenyl)propylamino)-4-(1,1-difluoro-2-hydroxyethyl)thiazol-5-yl)indolin-2-one], the IC50 fell in the range of 1000 to 10000 nM.

As for `Nc1noc2ccc(-c3cnc(NC[C@@H](N)Cc4c[nH]c5ccccc45)s3)cc12` [Example 38, 5-(2-((S)-2-amino-3-(1H-indol-3-yl)propylamino)thiazol-5-yl)benzo[d]isoxazol-3-amine], the IC50 was 50 to 1000 nM.

`Cc1n[nH]c2ccc(-c3cnc(NC[C@@H](N)Cc4ccc(Cl)cc4)s3)cc12` [Example 3, N—((S)-2-amino-3-(4-chlorophenyl)propyl)-5-(3-methyl-1H-indazol-5-yl)thiazol-2-amine] yielded an IC50 of 50 to 1000 nM.

On to `N[C@H](CNc1ncc(-c2ccc3c(c2)CNC3=O)s1)Cc1ccc(Cl)s1` [Example 239, 3,5-(2-((S)-2-amino-3-(5-chlorothiophen-2-yl)propylamino)thiazol-5-yl)isoindolin-1-one], for which the IC50 fell in the range of 1000 to 10000 nM.

As for `CC(=O)OC[C@@H](c1ccc(C(F)(F)F)cc1)[C@H](N)CNc1ncc(-c2ccc3c(c2)CC(=O)N3)s1` [Example 248, (2S,3S)-3-amino-4-(5-(2-oxoindolin-5-yl)thiazol-2-ylamino)-2-(4-(trifluoromethyl)phenyl)butyl acetate], the IC50 fell in the range of 50 to 1000 nM.

Compound `CNc1n[nH]c2ccc(-c3cnc(NC[C@@H](N)Cc4c[nH]c5ccccc45)s3)cc12` [Example 45, 5-(2-((S)-2-amino-3-(1H-indol-3-yl)propylamino)thiazol-5-yl)-N-methyl-1H-indazol-3-amine] gave an IC50 of 1000 to 10000 nM.

Regarding `N[C@H](CNc1ncc(-c2ccc3cnccc3c2)s1)Cc1ccc(C(F)(F)F)c(O)c1` [Example 208, 5-((S)-2-amino-3-(5-(isoquinolin-6-yl)thiazol-2-ylamino)propyl)-2-(trifluoromethyl)phenol], the concentration for half-maximal inhibition (IC50) is under 50 nM.

`N[C@H](CNc1nc(-c2ccco2)c(-c2ccc3cnccc3c2)s1)Cc1ccc(C(F)(F)F)cc1` [Example 8, N—((S)-2-amino-3-(4-(trifluoromethyl)phenyl)propyl)-4-(furan-2-yl)-5-(isoquinolin-6-yl)thiazol-2-amine]: the IC50 is 50 to 1000 nM.

Consider `N[C@H](CNc1ncc(-c2ccc3[nH]c(=O)oc3c2)s1)Cc1ccc2ccccc2c1` [Example 204, 6-(2-((S)-2-amino-3-(naphthalen-2-yl)propylamino)thiazol-5-yl)benzo[d]oxazol-2(3H)-one], for which the IC50 was under 50 nM.

In turn, `CC1C(=O)Nc2ccc(-c3cnc(NC[C@@H](N)Cc4ccc(C(F)(F)F)cc4)s3)cc21` (stereo partly drawn) [Example 47, 5-(2-((S)-2-amino-3-(4-(trifluoromethyl)phenyl)propylamino)thiazol-5-yl)-3-methylindolin-2-one] registered an IC50 of 50 to 1000 nM.

As for `Cn1ncc2ccc(-c3cnc(NC[C@@H](N)Cc4ccc(C(F)(F)F)cc4)s3)cc21` [Example 167, N—((S)-2-amino-3-(4-(trifluoromethyl)phenyl)propyl)-5-(1-methyl-1H-indazol-6-yl)thiazol-2-amine], the IC50 fell in the range of 1000 to 10000 nM.

`COc1cc(C[C@H](N)CNc2ncc(-c3ccc4cnccc4c3)s2)ccc1C(F)(F)F` [Example 205, N—((S)-2-amino-3-(3-methoxy-4-(trifluoromethyl)phenyl)propyl)-5-(isoquinolin-6-yl)thiazol-2-amine]: the IC50 is under 50 nM.

`C[C@@H](c1ccc(C(F)(F)F)cc1)[C@H](N)CNc1ncc(-c2ccc3c(c2)CC(=O)N3)s1` [Example 92, 5-(2-((2S,3S)-2-Amino-3-(4-(trifluoromethyl)phenyl)butylamino)thiazol-5-yl)indolin-2-one methane sulfonic acid salt]: the IC50 was under 50 nM.

Compound `COc1cc(C[C@H](N)CNc2ncc(-c3ccc4c(c3)CC(=O)N4)s2)cnc1C(F)(F)F` [Example 174, 5-(2-((S)-2-amino-3-(5-methoxy-6-(trifluoromethyl)pyridin-3-yl)propylamino)thiazol-5-yl)indolin-2-one] came in with an IC50 of 50 to 1000 nM.

`N[C@H](CNc1ncc(-c2ccc3[nH]c(=O)oc3c2)s1)Cc1ccc(C(F)(F)F)cc1` [Example 40, 6-(2-((S)-2-amino-3-(4-(trifluoromethyl)phenyl)propylamino)thiazol-5-yl)benzo[d]oxazol-2(3H)-one] returned an IC50 of under 50 nM.

Compound `COC(C)c1nc(NC[C@@H](N)Cc2ccc(C(F)(F)F)cc2)sc1-c1ccc2cnccc2c1` (stereo partly drawn) [Example 16, N—((S)-2-amino-3-(4-(trifluoromethyl)phenyl)propyl)-5-(isoquinolin-6-yl)-4-(1-methoxyethyl)thiazol-2-amine] registered an IC50 of 50 to 1000 nM.

The compound `Cn1c(=O)[nH]c2ccc(-c3sc(NC[C@@H](N)Cc4ccc(C(F)(F)F)cc4)nc3C#N)cc21` [Example 62, 2-((S)-2-amino-3-(4-(trifluoromethyl)phenyl)propylamino)-5-(3-methyl-2-oxo-2,3-dihydro-1H-benzo[d]imidazol-5-yl)thiazole-4-carbonitrile] registered an IC50 of 1000 to 10000 nM.

Compound `C[C@@H](Nc1ncc(-c2ccc3[nH]c(=O)oc3c2)s1)[C@@H](N)Cc1ccc(C(F)(F)F)cc1` [Example 231, 6-(2-((2R,3S)-3-amino-4-(4-(trifluoromethyl)phenyl)butan-2-ylamino)thiazol-5-yl)benzo[d]oxazol-2(3H)-one] displayed an IC50 of 50 to 1000 nM.

Turning to `COCc1nc(NC[C@@H](N)Cc2ccc(C(F)(F)F)cc2)sc1-c1ccc2[nH]c(=O)oc2c1` [Example 59, 6-(2-((S)-2-amino-3-(4-(trifluoromethyl)phenyl)propylamino)-4-(methoxymethyl)thiazol-5-yl)benzo[d]oxazol-2(3H)-one], the IC50 was under 50 nM.

Take `NC(=O)c1nc(NC[C@@H](N)Cc2ccc(C(F)(F)F)cc2)sc1-c1ccc2cnccc2c1` [Example 121, 2-((S)-2-amino-3-(4-(trifluoromethyl)phenyl)propylamino)-5-(isoquinolin-6-yl)thiazole-4-carboxamide]: the IC50 was in the range of 1000 to 10000 nM.

The compound `N[C@H](CNc1ncc(-c2cc3oc(=O)[nH]c3cc2F)s1)Cc1ccc(C(F)(F)F)cc1` [Example 112, 6-(2-((S)-2-Amino-3-(4-(trifluoromethyl)phenyl)propylamino)thiazol-5-yl)-5-fluorobenzo[d]oxazol-2(3H)-one] came in with an IC50 of under 50 nM.

What is called IC50 is the concentration at which inhibition is half-maximal. Read a low IC50 as higher potency.
